Measured values from the supplement of paper PMC11208160.

Test: recombinant UMI read abundance after kanamycin selection (control-corrected) (log10(CPM+1)); higher = more efficient recombination; extreme values may be limits of the assay; sequences stand for … in AGTGCAGAGAAAATCGGCCAGTTTTCTCTGCCTGCAGTCCGCATGCCGTGGGACCCCTTGGGTTCTAACCTGTTGCCTAGATTTATGCAGCGGACTGCCTTTCTCCCAAAGTGATAAACCGG…AGGTTGGTTTCACT; site = the 11-nt donor
Summary of the method: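 Sequenced counts of recombinant UMIs were turned into CPM, averaged across replicates and scaled with control-derived factors. The reported figure is log10(CPM+1). Those UMIs, each 12 nt long, tagged donor and donor-binding-loop pairs on a plasmid with a promoterless kanamycin gene, screened as a pool in Escherichia coli with IPTG (0.07 mM) plus kanamycin or without selection.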
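Further: IS621 bridge recombinase in Escherichia coli cells against a fixed T5 target plasmid.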

First: CGAATATCATGGACCGGTTTTCCCGGTAATCCGTATTTGCG (site CGAATATCTCG)
Second: CGAATCGCATGGACCGGTTTTCCCGGTAATCCGTATTTGAT (site CGAATCGCTAT)
The “recombinant UMI read abundance (log10)” value of the first is higher: 2.99 for the first, 2.72 for the second.

Going from “CGAATGGCATGGACCGGTTTTCCCGGTAATCCGTATTTGCG (site GAGGGCACTAT)” to “CGACCAACATGGACCGGTTTTCCCGGTAATCCGTATTTGCT (site CGACCAACTAG)”, the “recombinant UMI read abundance (log10)” value rises from 0.0326 to 2.28.

“CGACCAACATGGACCGGTTTTCCCGGTAATCCGTATTTGCT (site CGATCATCTAG)” and “CGACCCGCATGGACCGGTTTTCCCGGTAATCCGTATTTGCG (site CGACCCGCTCG)” are within 0.2 log units of each other in “recombinant UMI read abundance (log10)” value: 0 for the first, 0.0234 for the second.

“CGACGACCATGGACCGGTTTTCCCGGTAATCCGTATTTGAA (site CGACGACCTTT)” and “CGACGGTCATGGACCGGTTTTCCCGGTAATCCGTATTTGCC (site TATGCCGCTAT)” are within 0.2 log units of each other in “recombinant UMI read abundance (log10)” value: 0.00772 for the first, 0 for the second.

Compared with “CGACTAACATGGACCGGTTTTCCCGGTAATCCGTATTTGGA (site CAACTAACTTC)”, “CGACTAACATGGACCGGTTTTCCCGGTAATCCGTATTTGGA (site CCACTAACTTC)” is lower in “recombinant UMI read abundance (log10)” value: 1.44 for the first, 0.226 for the second.

Compared with “CGACTAACATGGACCGGTTTTCCCGGTAATCCGTATTTGGA (site CGACTAACTTC)”, “CGACTAACATGGACCGGTTTTCCCGGTAATCCGTATTTGGA (site CTACTAACTTC)” is lower in “recombinant UMI read abundance (log10)” value: 1.74 for the first, 0.554 for the second.

“CGAGAACCATGGACCGGTTTTCCCGGTAATCCGTATTTGGG (site CGAGAACCTCC)” and “CGAGAACCATGGACCGGTTTTCCCGGTAATCCGTATTTGGG (site CGAGCACCTCC)” are within 0.2 log units of each other in “recombinant UMI read abundance (log10)” value: 0 for the first, 0.00673 for the second.

“CGAGAACCATGGACCGGTTTTCCCGGTAATCCGTATTTGGG (site CGAGGACCTCC)” and “CGAGAACCATGGACCGGTTTTCCCGGTAATCCGTATTTGGG (site CGAGTACCTCC)” are within 0.2 log units of each other in “recombinant UMI read abundance (log10)” value: 0.0198 for the first, 0.00635 for the second.

“CGAGAAGCATGGACCGGTTTTCCCGGTAATCCGTATTTGCT (site CGAGAAGCTAG)” and “CGAGAAGCATGGACCGGTTTTCCCGGTAATCCGTATTTGTC (site CGAGAAGCTGA)” are within 0.2 log units of each other in “recombinant UMI read abundance (log10)” value: 2.17 for the first, 2.25 for the second.

Going from “CGAGAGTCATGGACCGGTTTTCCCGGTAATCCGTATTTGCC (site CGAGAGTCTGG)” to “CGAGAGTCATGGACCGGTTTTCCCGGTAATCCGTATTTGCC (site CGCGAGTCTGG)”, the “recombinant UMI read abundance (log10)” value falls from 3.37 to 0.

Compared with “CGAGAGTCATGGACCGGTTTTCCCGGTAATCCGTATTTGCC (site CGGGAGTCTGG)”, “CGAGAGTCATGGACCGGTTTTCCCGGTAATCCGTATTTGCC (site CGTGAGTCTGG)” is higher in “recombinant UMI read abundance (log10)” value: 1.46 for the first, 2.4 for the second.

Going from “CGAGCGACATGGACCGGTTTTCCCGGTAATCCGTATTTGTA (site CGAGCGACTTA)” to “CGAGGACCATGGACCGGTTTTCCCGGTAATCCGTATTTGAA (site CGAGGACCTTT)”, the “recombinant UMI read abundance (log10)” value falls from 2.3 to 0.0106.

“CGAGGACCATGGACCGGTTTTCCCGGTAATCCGTATTTGGC (site CGAGGACCTAC)” and “CGAGGACCATGGACCGGTTTTCCCGGTAATCCGTATTTGGC (site CGAGGACCTCC)” are within 0.2 log units of each other in “recombinant UMI read abundance (log10)” value: 0.0204 for the first, 0.0246 for the second.

“CGAGGACCATGGACCGGTTTTCCCGGTAATCCGTATTTGGC (site CGAGGACCTGC)” and “CGAGGACCATGGACCGGTTTTCCCGGTAATCCGTATTTGGC (site CGAGGACCTTC)” are within 0.2 log units of each other in “recombinant UMI read abundance (log10)” value: 0 for the first, 0.013 for the second.

“CGAGGCCCATGGACCGGTTTTCCCGGTAATCCGTATTTGGG (site CGAGGACCTCC)” and “CGAGGCCCATGGACCGGTTTTCCCGGTAATCCGTATTTGGG (site CGAGGCCCTCC)” are within 0.2 log units of each other in “recombinant UMI read abundance (log10)” value: 0.0197 for the first, 0.0196 for the second.

“CGAGGCCCATGGACCGGTTTTCCCGGTAATCCGTATTTGGG (site CGAGGGCCTCC)” and “CGAGGCCCATGGACCGGTTTTCCCGGTAATCCGTATTTGGG (site CGAGGTCCTCC)” are within 0.2 log units of each other in “recombinant UMI read abundance (log10)” value: 0.016 for the first, 0.00542 for the second.

Compared with “CGAGTATCATGGACCGGTTTTCCCGGTAATCCGTATTTGCA (site ACAGTATCTTG)”, “CGAGTATCATGGACCGGTTTTCCCGGTAATCCGTATTTGCA (site CGAGTATCTTG)” is higher in “recombinant UMI read abundance (log10)” value: 2.08 for the first, 3 for the second.

Compared with “CGAGTCCCATGGACCGGTTTTCCCGGTAATCCGTATTTGTG (site GTCAGTTCTAG)”, “CGATAAACATGGACCGGTTTTCCCGGTAATCCGTATTTGCT (site CGATAAACTAG)” is higher in “recombinant UMI read abundance (log10)” value: 0 for the first, 2.83 for the second.

Compared with “CGATAAACATGGACCGGTTTTCCCGGTAATCCGTATTTGCT (site CGATCATCTAG)”, “CGATACACATGGACCGGTTTTCCCGGTAATCCGTATTTGCT (site CGATACACTAG)” is higher in “recombinant UMI read abundance (log10)” value: 0 for the first, 2.54 for the second.

Going from “CGATAGTCATGGACCGGTTTTCCCGGTAATCCGTATTTGCC (site CGATAGTCTGG)” to “CGATCAACATGGACCGGTTTTCCCGGTAATCCGTATTTGCG (site CGATCAACTCG)”, the “recombinant UMI read abundance (log10)” value falls from 2.66 to 0.894.

Going from “CGATCAACATGGACCGGTTTTCCCGGTAATCCGTATTTGCG (site CGATCATCTAG)” to “CGATCAGCATGGACCGGTTTTCCCGGTAATCCGTATTTGTT (site CGATCAGCTAA)”, the “recombinant UMI read abundance (log10)” value rises from 0 to 1.59.

“CGATCAGCATGGACCGGTTTTCCCGGTAATCCGTATTTGTT (site CGATCATCTAG)” and “CGATCCTCATGGACCGGTTTTCCCGGTAATCCGTATTTGCG (site CGATCATCTAG)” are the same in “recombinant UMI read abundance (log10)” value: 0 for the first, 0 for the second.

Compared with “CGATCCTCATGGACCGGTTTTCCCGGTAATCCGTATTTGCG (site CGATCCTCTCG)”, “CGATCCTCATGGACCGGTTTTCCCGGTAATCCGTATTTGCT (site CGATCATCTAG)” is lower in “recombinant UMI read abundance (log10)” value: 2.64 for the first, 0 for the second.

Compared with “CGATCCTCATGGACCGGTTTTCCCGGTAATCCGTATTTGCT (site CGATCCTCTAG)”, “CGATCCTCATGGACCGGTTTTCCCGGTAATCCGTATTTGCT (site CGATCGTCTAG)” is lower in “recombinant UMI read abundance (log10)” value: 2.82 for the first, 0 for the second.

“CGATCCTCATGGACCGGTTTTCCCGGTAATCCGTATTTGCT (site CGATCTTCTAG)” and “CGATCGACATGGACCGGTTTTCCCGGTAATCCGTATTTGAT (site CGATCGACTAA)” are within 0.2 log units of each other in “recombinant UMI read abundance (log10)” value: 0 for the first, 0.0179 for the second.

“CGATCGACATGGACCGGTTTTCCCGGTAATCCGTATTTGAT (site CGATCGACTAC)” and “CGATCGACATGGACCGGTTTTCCCGGTAATCCGTATTTGAT (site CGATCGACTAG)” are the same in “recombinant UMI read abundance (log10)” value: 0 for the first, 0 for the second.

First: CGATCGACATGGACCGGTTTTCCCGGTAATCCGTATTTGAT (site CGATCGACTAT)
Second: CGATCGCCATGGACCGGTTTTCCCGGTAATCCGTATTTGTT (site CGATCGACTAA)
The “recombinant UMI read abundance (log10)” value of the first is higher: 0.807 for the first, 0.0236 for the second.

“CGATCGCCATGGACCGGTTTTCCCGGTAATCCGTATTTGTT (site CGATCGCCTAA)” and “CGATCGCCATGGACCGGTTTTCCCGGTAATCCGTATTTGTT (site CGATCGGCTAA)” are within 0.2 log units of each other in “recombinant UMI read abundance (log10)” value: 0.142 for the first, 0 for the second.

First: CGATCGCCATGGACCGGTTTTCCCGGTAATCCGTATTTGTT (site CGATCGTCTAA)
Second: CGATCGTCATGGACCGGTTTTCCCGGTAATCCGTATTTGCT (site CGATCATCTAG)
The “recombinant UMI read abundance (log10)” value of the first is lower: 1.46 for the first, 2.15 for the second.

Compared with “CGATCGTCATGGACCGGTTTTCCCGGTAATCCGTATTTGCT (site CGATCCTCTAG)”, “CGATCGTCATGGACCGGTTTTCCCGGTAATCCGTATTTGCT (site CGATCGTCTAG)” is higher in “recombinant UMI read abundance (log10)” value: 0 for the first, 2.46 for the second.

“CGATCGTCATGGACCGGTTTTCCCGGTAATCCGTATTTGCT (site CGATCTTCTAG)” and “CGATCTACATGGACCGGTTTTCCCGGTAATCCGTATTTGTT (site CGATCAACTAA)” are within 0.2 log units of each other in “recombinant UMI read abundance (log10)” value: 0 for the first, 0.012 for the second.

“CGATCTACATGGACCGGTTTTCCCGGTAATCCGTATTTGTT (site CGATCCACTAA)” and “CGATCTACATGGACCGGTTTTCCCGGTAATCCGTATTTGTT (site CGATCGACTAA)” are within 0.2 log units of each other in “recombinant UMI read abundance (log10)” value: 0.0103 for the first, 0.00912 for the second.

First: CGATCTACATGGACCGGTTTTCCCGGTAATCCGTATTTGTT (site CGATCTACTAA)
Second: CGATCTGCATGGACCGGTTTTCCCGGTAATCCGTATTTGCT (site CGATCATCTAG)
The “recombinant UMI read abundance (log10)” value of the first is higher: 0.246 for the first, 0 for the second.

Compared with “CGATCTGCATGGACCGGTTTTCCCGGTAATCCGTATTTGCT (site CGATCTGCTAG)”, “CGATGACCATGGACCGGTTTTCCCGGTAATCCGTATTTGCT (site CGATCATCTAG)” is lower in “recombinant UMI read abundance (log10)” value: 1.72 for the first, 0 for the second.

Going from “CGATGACCATGGACCGGTTTTCCCGGTAATCCGTATTTGCT (site CGATGACCTAG)” to “CGATGATCATGGACCGGTTTTCCCGGTAATCCGTATTTGAA (site CGATGATCTTT)”, the “recombinant UMI read abundance (log10)” value rises from 0 to 2.86.

“CGATTAGCATGGACCGGTTTTCCCGGTAATCCGTATTTGCT (site CGATCATCTAG)” and “CGATTAGCATGGACCGGTTTTCCCGGTAATCCGTATTTGCT (site CGATTAGCTAG)” are the same in “recombinant UMI read abundance (log10)” value: 0 for the first, 0 for the second.

Compared with “CGATTATCATGGACCGGTTTTCCCGGTAATCCGTATTTGAC (site CGATTATCTGT)”, “CGATTATCATGGACCGGTTTTCCCGGTAATCCGTATTTGAC (site CTAGTATCTGT)” is lower in “recombinant UMI read abundance (log10)” value: 1.98 for the first, 1.07 for the second.

With “CGATTATCATGGACCGGTTTTCCCGGTAATCCGTATTTGCA (site CGATCATCTAG)” the “recombinant UMI read abundance (log10)” value was 0.
